# Measurements from patent US11649460B2, “DNA aptamers, method for inhibiting human galectin-1 and method of treating a mammal in need thereof” (priority 2020, dated 2023).
# Key:
# [1] = system: NHF human foreskin skin fibroblasts; experiment: SRB cell proliferation (cytotoxicity) assay, NHF
# From the text: (§1) The XLSTAT software was used to determine the IC50, TGI and LC50 values using the four-parameter logistic curve equation.
# in vitro = conditions: human
# From the text: as §1
# [2] = system: OVCAR-3 human ovarian adenocarcinoma cell line; experiment: SRB cell proliferation (cytotoxicity) assay, OVCAR-3; conditions: for Relative cell viability (%): human
# From the text: as §1
# [3] = system: MCF-7 human breast adenocarcinoma cell line; experiment: SRB cell proliferation (cytotoxicity) assay, MCF-7; conditions: Homo sapiens
# From the text: as §1
# [4] = system: A-375 human malignant melanoma; experiment: SRB cell proliferation (cytotoxicity) assay, A-375; conditions: Homo sapiens, A-375, read-out: Relative cell viability (%)
# From the text: as §1
# [5] = system: HT-29 human colorectal adenocarcinoma; experiment: SRB cell proliferation (cytotoxicity) assay, HT-29; conditions: Homo sapiens
# From the text: as §1
# [6] = system: DU-145 human prostate carcinoma cell line; experiment: SRB cell proliferation (cytotoxicity) assay, DU-145; conditions: for Relative cell viability (%): human
# From the text: as §1
# [7] = system: SK-BR-3 human breast adenocarcinoma; experiment: SRB cell proliferation (cytotoxicity) assay, SK-BR-3; conditions: Homo sapiens
# From the text: as §1
# [8] = system: HCT 116 human colorectal carcinoma; experiment: SRB cell proliferation (cytotoxicity) assay, HCT 116; conditions: Homo sapiens
# From the text: as §1
# [9] = Homo sapiens, OVCAR-3, read-out: Relative cell viability (%)
# [10] = MCF7, read-out: Relative cell viability (%)
# [11] = HT-29, read-out: Relative cell viability (%)
# [12] = Homo sapiens, DU-145, read-out: Relative cell viability (%)
# [13] = SK-BR-3, read-out: Relative cell viability (%)
# [14] = HCT-116, read-out: Relative cell viability (%)
smiles,measurement,setting,value
"CC(=O)O[C@H]1C(=O)[C@@]2(C)[C@H]([C@H](OC(=O)c3ccccc3)[C@]3(O)C[C@H](OC(=O)[C@H](O)[C@@H](NC(=O)c4ccccc4)c4ccccc4)C(C)=C1C3(C)C)[C@]1(OC(C)=O)CO[C@@H]1C[C@@H]2O [Paclitaxel, reference compound]",IC50,"[1]; Homo sapiens, Skin fibroblast, read-out: IC50: Concentration to inhibit 50% of cell growth",18.7 nM
same,TGI: Concentration for total inhibition of cell growth,[1]; NHF,>100 nM
same,CC50,in vitro,> 100 nM
same,viability at 0.000781 µM,in vitro,86.6%
same,viability at 0.001562 µM,in vitro,79.7%
same,viability at 0.003125 µM,in vitro,72.1%
same,viability at 0.00625 µM,in vitro,61.9%
same,viability at 0.0125 µM,in vitro,58.6%
same,viability at 0.05 µM,in vitro,28.7%
same,viability at 0.1 µM,in vitro,16.9%
same,IC50,"[2]; Homo sapiens, OVCAR-3, read-out: IC50: Concentration to inhibit 50% of cell growth",10 nM
same,CC50,"[2]; Homo sapiens, OVCAR-3, read-out: LC50: Concentration for 50% cell death",35.1 nM
same,viability at 0.000781 µM,[2]; [9],96.9%
same,viability at 0.001562 µM,[2]; [9],90.1%
same,viability at 0.003125 µM,[2]; [9],89.6%
same,viability at 0.00625 µM,[2]; [9],69.6%
same,viability at 0.0125 µM,[2]; [9],31.1%
same,TGI: Concentration for total inhibition of cell growth,[2]; OVCAR-3,15.402 nM
same,Relative cell viability (%),[2]; 0.05 µM,−45.1%
same,Relative cell viability (%),[2]; 0.1 µM,−57.5%
same,IC50,"[3]; MCF7, read-out: IC50: Concentration to inhibit 50% of cell growth",2.82 nM
same,viability at 0.000781 µM,[3]; [10],87.9%
same,viability at 0.001562 µM,[3]; [10],65.5%
same,viability at 0.003125 µM,[3]; [10],47.6%
same,viability at 0.00625 µM,[3]; [10],36.9%
same,viability at 0.0125 µM,[3]; [10],29.3%
same,viability at 0.05 µM,[3]; [10],23.6%
same,viability at 0.1 µM,[3]; [10],24.7%
same,viability at 0.000781 µM,[4],117%
same,viability at 0.001562 µM,[4],96.3%
same,viability at 0.003125 µM,[4],99.4%
same,viability at 0.00625 µM,[4],98.8%
same,viability at 0.0125 µM,[4],113%
same,viability at 0.05 µM,[4],91.2%
same,viability at 0.1 µM,[4],69%
same,IC50,"[5]; HT-29, read-out: IC50: Concentration to inhibit 50% of cell growth",6.31 nM
same,viability at 0.000781 µM,[5]; [11],102%
same,viability at 0.001562 µM,[5]; [11],99.1%
same,viability at 0.003125 µM,[5]; [11],80.8%
same,viability at 0.00625 µM,[5]; [11],48.8%
same,viability at 0.0125 µM,[5]; [11],24.5%
same,viability at 0.05 µM,[5]; [11],6.7%
same,viability at 0.1 µM,[5]; [11],5%
same,TGI: Concentration for total inhibition of cell growth,[6]; DU-145,13.021 nM
same,IC50,"[6]; Homo sapiens, DU-145, read-out: IC50: Concentration to inhibit 50% of cell growth",7.2 nM
same,viability at 0.000781 µM,[6]; [12],104%
same,viability at 0.001562 µM,[6]; [12],95.5%
same,viability at 0.003125 µM,[6]; [12],97.3%
same,viability at 0.00625 µM,[6]; [12],58.9%
same,viability at 0.0125 µM,[6]; [12],8.4%
same,Relative cell viability (%),[6]; 0.05 µM,−15.7%
same,Relative cell viability (%),[6]; 0.1 µM,−25.6%
same,IC50,"[7]; SK-BR-3, read-out: IC50: Concentration to inhibit 50% of cell growth",14.8 nM
same,viability at 0.000781 µM,[7]; [13],113%
same,viability at 0.001562 µM,[7]; [13],113%
same,viability at 0.003125 µM,[7]; [13],119%
same,viability at 0.00625 µM,[7]; [13],106%
same,viability at 0.0125 µM,[7]; [13],68.3%
same,viability at 0.05 µM,[7]; [13],12.3%
same,viability at 0.1 µM,[7]; [13],13.9%
same,IC50,"[8]; HCT-116, read-out: IC50: Concentration to inhibit 50% of cell growth",6.46 nM
same,viability at 0.000781 µM,[8]; [14],96.2%
same,viability at 0.001562 µM,[8]; [14],96.6%
same,viability at 0.003125 µM,[8]; [14],90.9%
same,viability at 0.00625 µM,[8]; [14],50.6%
same,viability at 0.0125 µM,[8]; [14],17.5%
same,viability at 0.05 µM,[8]; [14],3.4%
same,viability at 0.1 µM,[8]; [14],4.7%
